Measured values published in patent publication US6544952B1, “Synthesis of glycoconjugates of the globo-H epitope and uses thereof” (Sloan-Kettering Institute for Cancer Research, priority 1994, dated 2003).
Read-outs that look alike come from different tables or passages of the source.

Legend:
mAb MBr1 = assay: binding to mAb MBr1, mapping of structural requirements; parameters: species or system murine
Text: (§1) The breast tumor glycolipid associated antigen 2 (See FIG. 24) isolated by Hakomori and co-workers from MCF-7 cells, and termed globe H, constituted a promising possibility for exploration (Kannagi, R., et al., J. Biol. Chem. 1983, 258, 8934; Bremer, G., et al., J. Biol. Chem. 1984 259, 14773). Early studies in this area were facilitated by the immunocharacterization of the antigen by the murine monoclonal antibody Mbr1 (Menard, S., et al., Cancer Res. 1983, 43, 1295). Previously, we had described the total synthesis of the hexacyclic globo H glycal 1 (See FIG. 24) by the method of glycal assembly (See FIG. 24) (Bilodeau, M.T., et al., J. Am. Chem. Soc. 1995 117, 7840; Park, et al., J. Am. Chem. Soc. 1996, 118, 11488). This system was carried forward to reach antigen 2 (See FIG. 24), whose structure assignment was verified by unambiguous spectroscopic corroboration through this synthesis.
We then built upon the logic of our synthesis to prepare congeners of the compound and to use them to map the structural requirements for binding to the mAb MBr1.

[1] = system: MAb MBr1 with breast cancer cell lines such as MCF-7; assay: flow cytometry inhibition assay of mAb MBr1 reactivity with MCF-7; format: cell-based; settings: for inhibition of reactivity of MAb MBr1 with breast cancer cell lines such as MCF-7: 8 μg/ml of preparation
Procedure: By Thin Layer Chromatography (TLC) the 2 preparations migrate as similar single bands. […] The high level of reactivity of the β structure with mAb MBr1 was confirmed using flow cytometry inhibition assays. Reactivity of MAb MBr1 with breast cancer cell lines such as MCF-7 was 98% inhibited by 8 μg/ml of the β linkage preparation but was only 6% inhibited by 8 μg of the α-linkage preparation.
as §1

[2] = system: antisera binding to globo H antigen 2; assay: inhibition of binding of anti-globo H antisera to globo H antigen 2 (ELISA); parameters: species or system mice
Text: As an indication of specificity, we conducted assays with compounds 2-8 of FIGS. 24 and 25 to determine their ability to inhibit the binding of antisera to the fully synthetic globo H antigen 2 (FIG. 28). […] Partial inhibition resulted from truncated globo H compounds, but not with unrelated compounds such as ganglioside GD3. These findings are consistent with a polyclonal serological response in which different antibodies react with different portions of compound 2.

MBr1 monoclonal antibody = assay: Immune TLC with monoclonal antibody MBr1; format: binding, murine; settings: comparable staining with 1/10 the amount of antigen
[3] = system: mice (antibodies against the immunizing antigen); assay: immunization of mice with Le^y conjugates 17c and 32c, ELISA antibody titer; format: in vivo; settings: one set of 5 mice; graphs J-L
Procedure: The stage was set for immunizations with conjugates 17c and 32c. The immunizations with the BSA conjugate 17c were carried out on two sets of 5 mice and the immunizations with the ceramide conjugate 32c were carried out on one set of 5 mice. An enzyme-linked immunosorbant assay (ELISA) was used to measure antibody titer (FIG. 20(b)). Three different ELISA experiments were performed to measure antibody titer. The first is the measure of total antibody response (aIg), that is the summation of IgM and IgG antibodies, as shown in graphs A, D, G. and J of FIGS. 21(a) and (b). The other two assays measure IgM and IgG antibodies separately as indicated in the graphs. The ELISA assay (see FIG. 20(b)) involves the immobilization of a test antigen in a microtiter well. The serum to be tested for antibodies is placed in the well. Any antibodies in the serum recognizing the test antigen will remain in the well after thorough washing. Next, modified anti-mouse Ig, IgM, or IgG antibodies are placed in the well. […] The presence of the alkaline phosphatase-linked secondary antibody causes cleavage of the phosphate, yielding the yellow p-nitrophenolate anion, which can be quantified using spectrophotometric techniques.
Graphs A, B, and C in FIG. 21(a) show the measured titers of total antibody Ig (A), IgM (B), and IgG (C) type antibodies in five mice immunized with conjugate 17c. […]

Compound: Fuca1→GalB1→3GalNAcB1→3Galα1→4GlB1→4GcB1→1Cer [compound 2]
- binding to mAb MBr1 (mAb MBr1): bind to the murine monoclonal antibody (mAb) MBr1
- binding to mAb MBr1 (mAb MBr1; listed as 1b): bind to the monoclonal antibody MBr1
- inhibition of MBr1 binding to MCF-7 cells [1]: inhibited its binding to MCF-7 cells
- inhibition of reactivity of MAb MBr1 with breast cancer cell lines such as MCF-7 [1]: 98%
- inhibition of binding of antisera to globo H antigen 2 [2]: complete inhibition
- reactivity with MBr1 monoclonal antibody, β-form relative to the other form (MBr1 monoclonal antibody): 10 times

Compound: Fucα1→2GalB1→3GalNAcα1→3Galα1→4GalB1→1Cer [α-linkage preparation]
- inhibition of reactivity of MAb MBr1 with breast cancer cell lines such as MCF-7 [1]: 6%

Compound: CCCCCCCCCCCCCC=C[C@@H](O)[C@@H](CO[C@@H]1O[C@H](CO)[C@@H](O[C@@H]2O[C@H](CO)[C@H](O)[C@H](O)[C@H]2O[C@@H]2O[C@@H](C)[C@@H](O)[C@@H](O)[C@@H]2O)[C@H](O[C@@H]2O[C@@H](C)[C@@H](O)[C@@H](O)[C@@H]2O)[C@H]1NC(C)=O)NC(=O)CCCCCCCCCCCCCCC [32c, (3R)-Hydroxy-(2R)-hexadecanamido-4-octadecenyl-[[[(6-deoxy-a-L-galactopyranosyl)-(1→2)]-(b-D-galactopyranosyl)-(1→4)]-(6-deoxy-a-L-galactopyranosyl)-(1→3)]-2-deoxy-2-acetamido-b-D-glucopyranose]
- IgG response [3]: No mice showed any IgG response
- IgM response [3]: Most mice showed only a weak IgM response
